Like-named read-outs stand apart in the source and are kept apart here.
Tested on: 88 urinary tract infection E. coli isolates
Type: cell-based, Escherichia coli
Conditions: for Host Range % on MDR Subset (n = 21), Combination: Antibiotic + LBP-EC01 v.2 / Host Range % on all Strains (n = 88), Combination: Antibiotic + LBP-EC01 v.2 / Host Range % on Beta-lactam-Resistant Subset (n = 31), Combination: Antibiotic + LBP-EC01 v.2: antibiotic combined with LBP-EC01 v.2; for Host Range % on all Strains (n = 88), Combination: Antibiotic + CK618 v.2: antibiotic at breakpoint concentration plus cocktail 1 × 10^6 PFU/ml per bacteriophage
Experimental: Phage cocktail CK618 was tested in combination with and alongside antibiotics against two isolate panels. The first assay used a panel of 88 contemporaneous urinary tract infection (UTI) isolates from North America, Europe, Latin America, and Asia. […] The second assay used a panel made up of a 300-strain clinical isolate panel (Table 14) with an additional 4 strains of interest. […] Four of the same SOC antibiotics tested against the 88-isolate panel were tested against this panel. The non-SOC antibiotics were not included due to their limited use in clinical settings, and nitrofurantoin was not included due to the low probability of resistance to this drug.
For both isolate panels, antibiotic concentrations tested were determined by using Clinical and Laboratory Standards Institute (CLSI) or European Committee on Antimicrobial Susceptibility Testing (EUCAST) breakpoints at concentrations that kill susceptible isolates but allow intermediate or resistant isolates to grow in the standard AST microdilution assay (Table 17).
The composition of the proposed Phase 2 CRISPR-enhanced bacteriophage (CRISPR-phage, hereafter termed ‘crPhage’) cocktail (CK618) has been updated from the CK570 to include six bacteriophages as compared to three bacteriophages in CK570. Bacteriophage cocktail CK618, was prepared such that all bacteriophages had equivalent titers in the final cocktail. The cocktail was then mixed with bacteria to obtain final titers of 1×10^6 plaque-forming unit (PFU)/mL/phage for the cocktail and 1×10^5 colony-forming unit (CFU)/mL for the bacteria, resulting in a multiplicity of infection (MOI) of 10 for each bacteriophage in a sample. Briefly, 5 μl of each sample (CK618 alone, CK618 and antibiotics, antibiotics alone, or medium alone) was added to 5 μl of optical density (OD)-normalized bacterial isolate and 40 μl LB medium. Reactions were incubated at 37° C. with shaking and OD measurements were taken each hour for 20 hours.
Host range percentage is the percent of isolates that responded to treatment of antibiotics or CK618. In the case of the 88-isolate panel, results were analyzed on the complete panel as well as the subset of classified as multidrug-resistant (MDR) (n=21) and beta-lactam-resistant (n=31).
The first assay used a panel of 88 contemporaneous isolates. Twenty-one of those strains are classified as MDR, with resistance to 3 or more antibiotic classes. […] The second assay used the panel made up of a 300-strain clinical isolate panel with an additional 4 strains of interest.
Antibiotic concentrations tested were determined by using CLSI or EUCAST breakpoints at concentrations that kill susceptible strains but allow intermediate or resistant strains to grow in the standard AST microdilution assay (Table 27). LBP-EC01 v.2 was combined with bacteria resulting in a MO of 10 for each bacteriophage in a sample. In the case of the 88-isolate panel, results were analyzed on the complete panel as well as the subset of isolates classified as multidrug-resistant (MDR) (n=21) and beta-lactam-resistant (n=31).

[1] = 88-isolate panel, MDR subset, single agent
[2] = 88-isolate panel, all strains, single agent
[3] = 88-isolate panel, beta-lactam-resistant subset
[4] = 88-isolate panel, beta-lactam-resistant subset, single agent
[5] = antibiotic at breakpoint concentration (Table 17), cocktail 1 × 10^6 PFU/ml per bacteriophage, MOI 10

Row | SMILES | Host Range % on Beta-lactam-Resistant Subset (n = 31), Combination: Antibiotic + CK618 v.2 (88-isolate panel) | Host Range % on Beta-lactam-Resistant Subset (n = 31), Single agent treatment (88-isolate panel) | Host Range % on MDR Subset (n = 21), Combination: Antibiotic + CK618 v.2 (88-isolate panel) | Host Range % on MDR Subset (n = 21), Single agent treatment (88-isolate panel) | Host Range % on MDR Subset (n = 21), Combination: Antibiotic + LBP-EC01 v.2 (88-isolate panel, MDR subset) | Host Range % on MDR Subset (n = 21), Single agent treatment [1] | Host Range % on all Strains (n = 88), Combination: Antibiotic + LBP-EC01 v.2 (88-isolate panel, all strains) | Host Range % on all Strains (n = 88), Single agent treatment [2] | Host Range % on Beta-lactam-Resistant Subset (n = 31), Combination: Antibiotic + LBP-EC01 v.2 [3] | Host Range % on Beta-lactam-Resistant Subset (n = 31), Single agent treatment [4] | Host Range % on all Strains (n = 88), Single agent treatment [5] | Host Range % on all Strains (n = 88), Combination: Antibiotic + CK618 v.2
1 | O=C1CN(/N=C/c2ccc([N+](=O)[O-])o2)C(=O)N1 [Nitrofurantoin] | 97.8% | 90.3% | 98.4% | 85.7% | 98.4% | 85.7% | 93.9% | 83.0% | 97.8% | 90.3% | 83.0% | 93.9%
2 | CO/N=C(\C(=O)N[C@@H]1C(=O)N2C(C(=O)O)=C(CSc3nc(=O)c(=O)[nH]n3C)CS[C@H]12)c1csc(N)n1 [Ceftriaxone] | 81.7% | 15.1% | 77.8% | 20.6% | 77.8% | 20.6% | 92.4% | 64.4% | 81.7% | 15.1% | 64.4% | 92.4%
3 | C=CC1=C(C(=O)O)N2C(=O)[C@@H](NC(=O)/C(=N\O)c3csc(N)n3)[C@H]2SC1 [Cefdinir] | 78.5% | 12.9% | 74.6% | 14.3% | 74.6% | 14.3% | 87.5% | 48.9% | 78.5% | 12.9% | 48.9% | 87.5%

— US20250345378A1 (priority 2022, published 2025)
